Results on 35 molecules are retold here after patent publication US12441726B2, “Compounds and uses thereof” (Foghorn Therapeutics Inc., priority 2020, dated 2025).

For one assay, the target named is BRG-1 (Homo sapiens, UniProt P51532). The experiment in a line: ATPase catalytic activity assay (ADP-Glo), BRG-1. Conditions: for Emax: 1 h, read-out: BRG1 Max % Inhibition, ADP-Glo, 30 nM BRG-1, 400 μM ATP. Background: ADP-Glo first removes unused ATP, then detects ADP through luciferase.
The next assay concerns the target BRM (Homo sapiens, UniProt P51531). The experiment in a line: ATPase catalytic activity assay (ADP-Glo), BRM. As to conditions: 30 nM BRM, 400 μM ATP; for IC50: BRM ATPase: IC50 (uM).

Each structure is given as a SMILES string.

BRG-1, sequence (P51532 whole entry): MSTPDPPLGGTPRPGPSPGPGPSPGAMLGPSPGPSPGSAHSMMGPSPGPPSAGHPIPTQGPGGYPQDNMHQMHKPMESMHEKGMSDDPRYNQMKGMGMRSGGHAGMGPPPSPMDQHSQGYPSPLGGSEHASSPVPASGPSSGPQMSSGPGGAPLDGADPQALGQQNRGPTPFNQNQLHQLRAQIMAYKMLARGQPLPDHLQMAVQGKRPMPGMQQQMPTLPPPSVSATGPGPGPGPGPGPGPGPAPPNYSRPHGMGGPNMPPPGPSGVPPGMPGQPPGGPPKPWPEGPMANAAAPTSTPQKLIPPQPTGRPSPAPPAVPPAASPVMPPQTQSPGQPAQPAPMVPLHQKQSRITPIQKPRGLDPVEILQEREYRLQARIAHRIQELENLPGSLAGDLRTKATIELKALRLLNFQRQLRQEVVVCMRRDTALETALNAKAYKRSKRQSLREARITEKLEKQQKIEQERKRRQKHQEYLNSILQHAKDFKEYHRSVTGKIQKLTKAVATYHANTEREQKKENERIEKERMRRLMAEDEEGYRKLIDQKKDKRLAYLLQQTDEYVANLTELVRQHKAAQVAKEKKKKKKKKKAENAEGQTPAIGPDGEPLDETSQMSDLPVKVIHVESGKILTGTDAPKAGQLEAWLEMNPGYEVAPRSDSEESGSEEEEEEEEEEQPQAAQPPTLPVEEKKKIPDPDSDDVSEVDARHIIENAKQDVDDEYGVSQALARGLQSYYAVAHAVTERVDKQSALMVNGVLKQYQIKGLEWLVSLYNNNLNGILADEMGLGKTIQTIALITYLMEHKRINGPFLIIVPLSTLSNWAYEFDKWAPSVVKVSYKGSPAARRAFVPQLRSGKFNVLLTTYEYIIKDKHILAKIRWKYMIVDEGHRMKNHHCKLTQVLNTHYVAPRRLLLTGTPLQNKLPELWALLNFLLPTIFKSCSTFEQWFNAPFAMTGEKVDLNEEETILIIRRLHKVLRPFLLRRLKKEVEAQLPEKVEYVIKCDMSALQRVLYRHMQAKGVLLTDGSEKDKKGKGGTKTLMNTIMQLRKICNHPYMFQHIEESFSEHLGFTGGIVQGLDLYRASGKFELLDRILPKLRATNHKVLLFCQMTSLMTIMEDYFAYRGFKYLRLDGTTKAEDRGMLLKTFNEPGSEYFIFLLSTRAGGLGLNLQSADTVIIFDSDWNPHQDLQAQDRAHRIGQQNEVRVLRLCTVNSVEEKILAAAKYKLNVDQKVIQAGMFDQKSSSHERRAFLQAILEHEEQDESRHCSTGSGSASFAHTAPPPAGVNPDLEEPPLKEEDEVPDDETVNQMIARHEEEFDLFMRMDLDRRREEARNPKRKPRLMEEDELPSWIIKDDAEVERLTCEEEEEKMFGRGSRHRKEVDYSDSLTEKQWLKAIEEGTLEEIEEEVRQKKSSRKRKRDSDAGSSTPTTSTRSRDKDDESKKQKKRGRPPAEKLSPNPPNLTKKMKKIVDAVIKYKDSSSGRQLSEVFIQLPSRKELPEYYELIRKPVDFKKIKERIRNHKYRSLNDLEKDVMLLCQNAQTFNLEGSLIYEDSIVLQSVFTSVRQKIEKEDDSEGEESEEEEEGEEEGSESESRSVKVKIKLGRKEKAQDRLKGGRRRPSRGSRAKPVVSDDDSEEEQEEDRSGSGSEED
BRM, sequence (P51531 whole entry): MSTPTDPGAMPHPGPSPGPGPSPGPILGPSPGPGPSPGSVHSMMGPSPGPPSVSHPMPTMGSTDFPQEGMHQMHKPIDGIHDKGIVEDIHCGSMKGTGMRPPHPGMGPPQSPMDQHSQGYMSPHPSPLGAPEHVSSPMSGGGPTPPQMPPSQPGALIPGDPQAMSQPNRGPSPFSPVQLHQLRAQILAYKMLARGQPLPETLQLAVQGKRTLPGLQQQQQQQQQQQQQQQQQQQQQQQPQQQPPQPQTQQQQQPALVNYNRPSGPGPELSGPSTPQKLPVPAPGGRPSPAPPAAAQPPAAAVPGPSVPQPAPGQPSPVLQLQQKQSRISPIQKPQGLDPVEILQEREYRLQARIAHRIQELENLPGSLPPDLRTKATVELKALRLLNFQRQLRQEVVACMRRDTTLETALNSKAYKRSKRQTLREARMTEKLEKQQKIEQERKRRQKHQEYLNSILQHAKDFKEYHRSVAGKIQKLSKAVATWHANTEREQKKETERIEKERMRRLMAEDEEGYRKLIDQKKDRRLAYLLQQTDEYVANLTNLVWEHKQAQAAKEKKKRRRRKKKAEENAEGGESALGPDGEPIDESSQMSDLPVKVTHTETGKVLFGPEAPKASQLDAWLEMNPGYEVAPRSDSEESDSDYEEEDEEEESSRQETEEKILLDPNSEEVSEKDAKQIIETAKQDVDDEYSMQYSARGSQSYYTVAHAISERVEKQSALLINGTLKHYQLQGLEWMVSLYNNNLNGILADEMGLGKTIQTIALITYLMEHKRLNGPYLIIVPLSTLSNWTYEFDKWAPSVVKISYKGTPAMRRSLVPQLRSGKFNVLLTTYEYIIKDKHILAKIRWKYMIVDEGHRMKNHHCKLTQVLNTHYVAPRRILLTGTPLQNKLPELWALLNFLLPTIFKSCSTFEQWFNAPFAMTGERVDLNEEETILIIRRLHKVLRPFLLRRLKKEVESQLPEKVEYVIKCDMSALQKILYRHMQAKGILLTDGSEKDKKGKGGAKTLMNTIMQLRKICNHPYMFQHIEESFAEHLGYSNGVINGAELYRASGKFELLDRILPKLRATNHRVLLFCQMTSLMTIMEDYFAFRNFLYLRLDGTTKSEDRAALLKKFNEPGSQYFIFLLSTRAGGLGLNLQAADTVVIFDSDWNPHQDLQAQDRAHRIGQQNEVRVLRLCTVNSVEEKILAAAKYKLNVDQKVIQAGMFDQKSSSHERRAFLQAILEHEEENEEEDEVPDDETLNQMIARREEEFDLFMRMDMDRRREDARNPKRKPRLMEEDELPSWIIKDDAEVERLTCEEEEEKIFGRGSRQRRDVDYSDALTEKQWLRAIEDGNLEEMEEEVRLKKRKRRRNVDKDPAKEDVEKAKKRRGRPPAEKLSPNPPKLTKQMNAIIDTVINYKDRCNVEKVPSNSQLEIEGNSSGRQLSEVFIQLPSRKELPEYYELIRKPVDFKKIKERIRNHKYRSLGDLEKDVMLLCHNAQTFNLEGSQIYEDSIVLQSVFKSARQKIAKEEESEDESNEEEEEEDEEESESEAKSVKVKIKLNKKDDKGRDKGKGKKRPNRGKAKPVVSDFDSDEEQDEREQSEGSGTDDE
Method for BRG-1: The ATPase catalytic activity of BRM or BRG-1 was measured by an in vitro biochemical assay using ADP-Glo™ (Promega, V9102). The ADP-Glo™ kinase assay is performed in two steps once the reaction is complete. The first step is to deplete any unconsumed ATP in the reaction. The second step is to convert the reaction product ADP to ATP, which will be utilized by the luciferase to generate luminesce and be detected by a luminescence reader, such as Envision.
Then following addition of 5 μL of ADP-Glo™ Reagent provided in the kit, the reaction incubates at room temperature for 40 minutes. Then 10 μL of Kinase Detection Reagent provided in the kit is added to convert ADP to ATP, and the reaction incubates at room temperature for 60 minutes. Finally, luminescence measurement is collected with a plate-reading luminometer, such as Envision.

By IC50 is commonly meant the concentration that gives 50% inhibition. As to `C[C@@]1(C#N)COCc2ccc(C(=O)NCc3cc(C4CN(c5ccccc5)C4)ccn3)cc21` [Compound 30], at BRG-1, the IC50 is above 1000 nM and the Emax came to 35%. Also, at BRM, the “BRM Max % Inhibition” value is 92% and the 50% inhibitory concentration (IC50) fell in the range of 0.1 to 0.5 µM.

For the molecule `C[C@@]1(F)COCc2ccc(C(=O)NCc3cc4nc(-c5ccnc(N6CCC6)c5F)cnc4cn3)cc21` [Compound 207], on BRG-1, the IC50 lay in the range of 100 to 500 nM and the Emax was 89%. For the same molecule, at BRM, the “BRM Max % Inhibition” value was found to be 98% and the IC50 was below 0.1 µM.

In the case of `CC(F)(F)c1cncc(-c2ccc3cnc(CNC(=O)c4ccc5c(c4)[C@](C)(C#N)COC5)cc3n2)n1` [Compound 299], on BRG-1, the concentration for half-maximal inhibition (IC50) lay in the range of 500 to 1000 nM and the Emax was determined as 78%. Also, at BRM, the “BRM Max % Inhibition” value is given as 99% and the IC50 is below 0.1 µM.

For `O=C(NCc1cc2nc(-c3cncc(C4CC4)n3)ccc2cn1)c1cnc2c(c1)[C@](F)(C(F)F)CCO2` [Compound 241], on BRG-1, the IC50 lay within 500 to 1000 nM and the Emax was found to be 63%. Besides, at BRM, the “BRM Max % Inhibition” value is 97% and the IC50 was 0.1 to 0.5 µM.

For `Cn1ncc2c(-c3ccc4cnc(CNC(=O)c5ccc6c(c5)[C@](C)(C#N)COC6)cc4n3)cccc21` [Compound 182], on BRG-1, the IC50 was in the range of 100 to 500 nM and the Emax is 95%. For the same molecule, at BRM, the “BRM Max % Inhibition” value is 99% and the half-inhibitory concentration (IC50) was below 0.1 µM.

`C[C@@]1(C#N)COCc2ccc(C(=O)NCc3cc4nc(-c5ccnc(C(F)F)n5)ccc4cn3)cc21` [Compound 358]: at BRG-1, the half-inhibitory concentration (IC50) lay within 500 to 1000 nM and the Emax worked out at 67%. Moreover, at BRM, the “BRM Max % Inhibition” value came to 92% and the IC50 lay in the range of 0.1 to 0.5 µM.

Take `C[C@@]1(C#N)CCNc2ccc(C(=O)NCc3cc4nc(-c5ccccc5)ccc4cn3)cc21` [Compound 116]: on BRG-1, the IC50 was above 1000 nM and the Emax was 22%. In addition, at BRM, the “BRM Max % Inhibition” value is on record as 76% and the IC50 is above 1 µM.

With `C[C@@H]1CN(c2cccc(-c3ccc4[nH]c(CNC(=O)c5ccc6c(c5)[C@](C)(CO)CC6)nc4c3)c2)C[C@H](C)O1` [Compound 526], on BRG-1, the IC50 was 500 to 1000 nM and the Emax was 61.2%. Further, on BRM, the “BRM Max % Inhibition” value is given as 90.7% and the IC50 was in the range of 0.1 to 0.5 µM.

Consider `C[C@@]1(C#N)COCc2ccc(C(=O)NCc3cc4nc(-c5cn(C6COC6)nc5OC(F)F)ccc4cn3)cc21` [Compound 154], for which, at BRG-1, the IC50 was in the range of 100 to 500 nM and the Emax turned out to be 95%. At BRM, the “BRM Max % Inhibition” value amounted to 101% and the IC50 was below 0.1 µM.

With `COCC1CN(c2cncc(-c3ccc4cnc(CNC(=O)c5ccc6c(c5)[C@](C)(C#N)COC6)cc4n3)n2)C1` [Compound 394], at BRG-1, the 50% inhibitory concentration (IC50) is 100 to 500 nM and the Emax worked out at 93%. Further, at BRM, the “BRM Max % Inhibition” value is listed as 101% and the IC50 was below 0.1 µM.

As for `C[C@@]1(C#N)COCc2ncc(C(=O)NCc3cc4nc(-c5ccccc5)ccc4cn3)cc21` [Compound 122], at BRG-1, the half-maximal inhibitory concentration (IC50) is above 1000 nM and the Emax worked out at 62%. Moreover, on BRM, the “BRM Max % Inhibition” value came out at 94% and the half-inhibitory concentration (IC50) was in the range of 0.1 to 0.5 µM.

On to `Cn1cc2c(n1)CN(c1ccc3cnc(CNC(=O)c4ccc5c(c4)[C@](C)(C#N)COC5)cc3n1)CC2` [Compound 458], for which, on BRG-1, the concentration for half-maximal inhibition (IC50) fell in the range of 500 to 1000 nM and the Emax was 74%. At BRM, the “BRM Max % Inhibition” value is given as 95% and the IC50 was 0.1 to 0.5 µM.

`COc1ccc(F)cc1-c1ccc2cnc(CNC(=O)c3ccc4c(c3)[C@](C)(C#N)COC4)cc2n1` [Compound 517]: at BRG-1, the concentration for half-maximal inhibition (IC50) is 100 to 500 nM and the Emax is 88%. Besides, at BRM, the “BRM Max % Inhibition” value was 98% and the IC50 is below 0.1 µM.

Regarding `C[C@@]1(C#N)COCc2ccc(C(=O)NCc3cc([C@H]4C[C@H](c5ccccc5)C4)ccn3)cc21` [Compound 18], on BRG-1, the IC50 is above 1000 nM and the Emax stood at 87%. For the same molecule, on BRM, the “BRM Max % Inhibition” value is recorded as 93% and the IC50 is below 0.1 µM.

As for `C[C@@]1(F)COCc2ccc(C(=O)NCc3cc4nc(-c5cccc(C6(O)CCOC6)n5)ccc4cn3)cc21` (some centres unmarked) [Compound 249], at BRG-1, the IC50 fell in the range of 500 to 1000 nM and the Emax was 71%. Besides, on BRM, the “BRM Max % Inhibition” value stood at 97% and the 50% inhibitory concentration (IC50) lay in the range of 0.1 to 0.5 µM.

Take `C[C@@]1(O)COCc2ccc(C(=O)NCc3cc4nc(-c5ccccc5)ccc4cn3)cc21` [Compound 89]: at BRG-1, the IC50 was above 1000 nM and the Emax was 15%. Besides, at BRM, the “BRM Max % Inhibition” value was determined as 76% and the concentration for half-maximal inhibition (IC50) is above 1 µM.

Consider `COc1ncccc1-c1nc2cc(CNC(=O)c3ccc4c(c3)[C@](C)(C#N)COC4)ncc2s1` [Compound 354], for which, at BRG-1, the 50% inhibitory concentration (IC50) was above 1000 nM and the Emax worked out at 39%. For the same molecule, at BRM, the “BRM Max % Inhibition” value is 79% and the IC50 fell in the range of 0.1 to 0.5 µM.

Turning to `C[C@@]1(C#N)COCc2ccc(C(=O)NCc3cc4c(cn3)CCN(c3cccc(C(F)F)n3)C4)cc21` [Compound 304], at BRG-1, the IC50 is above 1000 nM and the Emax amounted to 38%. In addition, on BRM, the “BRM Max % Inhibition” value was found to be 86% and the IC50 was in the range of 0.1 to 0.5 µM.

As for `COc1c(-c2ccc3cnc(CNC(=O)c4ccc5c(c4)[C@](C)(C#N)COC5)cc3n2)cnn1C(F)F` [Compound 184], at BRG-1, the IC50 is 500 to 1000 nM and the Emax stood at 67%. Moreover, at BRM, the “BRM Max % Inhibition” value worked out at 94% and the IC50 was in the range of 0.1 to 0.5 µM.

`CN1CC(c2cccc(-c3ccc4cnc(CNC(=O)c5ccc6c(c5)[C@](C)(C#N)COC6)cc4n3)n2)C1` [Compound 359]: on BRG-1, the half-maximal inhibitory concentration (IC50) was above 1000 nM and the Emax worked out at 39%. Besides, on BRM, the “BRM Max % Inhibition” value turned out to be 89% and the 50% inhibitory concentration (IC50) was 0.1 to 0.5 µM.

For the molecule `C[C@@]1(C#N)COCc2ccc(C(=O)NCc3cc4nc(-c5cnn6ccccc56)ccc4cn3)cc21` [Compound 493], on BRG-1, the IC50 lay in the range of 500 to 1000 nM and the Emax amounted to 68%. Further, on BRM, the “BRM Max % Inhibition” value is on record as 96% and the IC50 was in the range of 0.1 to 0.5 µM.

In the case of `C[C@@]1(C#N)COCc2ccc(C(=O)NCc3cc4nc(-c5cccc(C6(O)CC6)n5)ccc4cn3)cc21` [Compound 384], at BRG-1, the IC50 was below 100 nM and the Emax was determined as 100%. Also, at BRM, the “BRM Max % Inhibition” value is 101% and the IC50 is below 0.1 µM.

`COc1cccc(-c2ccc3cnc(CNC(=O)c4ccc5c(c4)[C@](C)(C#N)COC5)cc3n2)c1` [Compound 91]: on BRG-1, the IC50 lay in the range of 500 to 1000 nM and the Emax came to 85%. Moreover, at BRM, the “BRM Max % Inhibition” value is listed as 97% and the IC50 is below 0.1 µM.

On to `COC(=O)N1CCCC(c2ccc3cnc(CNC(=O)c4ccc5c(c4)[C@](C)(C#N)COC5)cc3n2)C1` (some centres unmarked) [Compound 121], for which, at BRG-1, the IC50 is above 1000 nM and the Emax stood at 44%. Moreover, at BRM, the “BRM Max % Inhibition” value was 81% and the half-maximal inhibitory concentration (IC50) is above 1 µM.

For the molecule `C[C@@]1(C#N)COCc2ccc(C(=O)NCc3cc4nc(-c5ccnc(N6C[C@H]7C[C@@H]6CO7)n5)ccc4cn3)cc21` [Compound 310], on BRG-1, the IC50 was 100 to 500 nM and the Emax came out at 84%. Moreover, on BRM, the “BRM Max % Inhibition” value came to 97% and the IC50 is below 0.1 µM.

On to `C[C@@]1(F)COCc2c(F)cc(C(=O)NCc3cc4nc(-c5cncc(N6CCC6)n5)ccc4cn3)cc21` [Compound 398], for which, on BRG-1, the IC50 was in the range of 100 to 500 nM and the Emax was found to be 91%. Further, at BRM, the “BRM Max % Inhibition” value is on record as 98% and the IC50 is below 0.1 µM.

On to `C[C@@]1(C#N)COCc2ccc(C(=O)NCc3cc4c(cn3)CCN(c3ccccc3)C4)cc21` [Compound 92], for which, at BRG-1, the 50% inhibitory concentration (IC50) is above 1000 nM and the Emax was found to be 64%. Moreover, at BRM, the “BRM Max % Inhibition” value came out at 95% and the 50% inhibitory concentration (IC50) is 0.1 to 0.5 µM.

`C[C@@]1(C#N)COCc2ccc(C(=O)NCc3cc4c(cn3)CCN(c3ccnc(N5CCC5)c3F)C4)cc21` [Compound 258]: on BRG-1, the IC50 is 100 to 500 nM and the Emax was determined as 75%. Also, on BRM, the “BRM Max % Inhibition” value is recorded as 96% and the half-inhibitory concentration (IC50) fell in the range of 0.1 to 0.5 µM.

Regarding `C[C@@]1(F)COCc2ccc(C(=O)NCc3cc4nc(-c5ccnc(N6CC[C@H]7COC[C@@H]7C6)n5)ccc4cn3)cc21` [Compound 307], on BRG-1, the IC50 was 100 to 500 nM and the Emax turned out to be 97%. For the same molecule, at BRM, the “BRM Max % Inhibition” value is given as 98% and the IC50 was below 0.1 µM.

Consider `CN(C)c1nccc(-c2ccc3cnc(CNC(=O)c4ccc5c(c4)[C@](C)(C#N)COC5)cc3n2)n1` [Compound 424], for which, at BRG-1, the half-maximal inhibitory concentration (IC50) was below 100 nM and the Emax was 96%. Further, at BRM, the “BRM Max % Inhibition” value was 99% and the 50% inhibitory concentration (IC50) was below 0.1 µM.

As to `C[C@@]1(C#N)COCc2ccc(C(=O)NCc3cc4c(nn3)CCN(c3cncc(N5CCC5)n3)C4)cc21` [Compound 247], on BRG-1, the IC50 was above 1000 nM and the Emax amounted to 65%. In addition, at BRM, the “BRM Max % Inhibition” value is 93% and the concentration for half-maximal inhibition (IC50) is 0.1 to 0.5 µM.

In the case of `C[C@@]1(F)COCc2ccc(C(=O)NCc3cc4nc(-c5cccc(C6(O)COC6)n5)ccc4cn3)cc21` [Compound 160], at BRG-1, the concentration for half-maximal inhibition (IC50) was in the range of 500 to 1000 nM and the Emax was determined as 62%. Also, at BRM, the “BRM Max % Inhibition” value stood at 93% and the IC50 lay in the range of 0.1 to 0.5 µM.

On to `COc1cnn(C)c1-c1ccc2cnc(CNC(=O)c3ccc4c(c3)[C@](C)(C#N)COC4)cc2n1` [Compound 297], for which, on BRG-1, the IC50 lay in the range of 500 to 1000 nM and the Emax is 66%. Besides, at BRM, the “BRM Max % Inhibition” value is on record as 96% and the IC50 lay within 0.1 to 0.5 µM.

As to `C[C@@]1(C#N)COCc2ncc(C(=O)NCc3cc4nc(-c5cncc(C6CC6)n5)ccc4cn3)cc21` [Compound 221], at BRG-1, the IC50 is 100 to 500 nM and the Emax was determined as 88%. Also, on BRM, the “BRM Max % Inhibition” value stood at 99% and the IC50 was below 0.1 µM.

With `C[C@@]1(C#N)COCc2ccc(C(=O)NCc3cc4c(cn3)CCN(c3ccnc(N5CCC5)n3)C4)cc21` [Compound 332], on BRG-1, the half-inhibitory concentration (IC50) was 500 to 1000 nM and the Emax was determined as 67%. On BRM, the “BRM Max % Inhibition” value was 96% and the half-inhibitory concentration (IC50) lay within 0.1 to 0.5 µM.
